# From PMC11118710, “GLP-1 and Its Derived Peptides Mediate Pain Relief Through Direct TRPV1 Inhibition Without Affecting Thermoregulation” (Research Square, 2024)
# What was measured:
# [1] = system: TRPV1 (mouse DRG neurons); assay: Ca2+ imaging, CAP-induced responses in mouse DRG neurons; format: cell-based; details: 100 nM CAP, Fura-2 340/380 ratio
# Description: Cells were mechanically dissociated by gentle pipetting and placed on glass coverslips coated with poly-D-lysine.
# At room temperature, Ca^2+ imaging was conducted in mouse DRG, HEK293T, and hTRPV1-expressing CHO K1 cells. […] The cells were then rinsed three times with the medium and incubated for 30 min, following which they were placed on the stage of an inverted microscope (BX51W1; Olympus, Tokyo, Japan) and continuously superfused at a flow speed of 1 mL/min with a bath solution containing 140 mM NaCl, 5 mM KCl, 1 mM CaCl2, 2 mM MgCl2, 10 mM HEPES, and 10 mM glucose, adjusted to pH 7.4 with NaOH. […] The fluorescence 340/380 ratio was measured using digital video microfluorometry with an intensified camera (OptiMOS; QImaging, Surrey, Canada) coupled to the microscope. Data were analyzed using SlideBook 6 (Intelligent Imaging Innovations, Denver, CO). At the end of the experiment, cells were identified based on their response to high concentrations of KCl.
# [2] = system: rat TRPV1; assay: Ca2+ imaging, CAP-induced responses in HEK293T cells transfected with rat TRPV1; format: cell-based; details: no GLP-1R expression, 100 nM peptide, 100 nM CAP, vs control CAP
# Description: DRG cells were then grown in a neurobasal-defined medium supplemented with 10% fetal bovine serum (FBS; Gibco, Waltham, MA), 2% B27 supplement (Invitrogen, Carlsbad, CA), and 1% penicillin/streptomycin for 24 h before experiments. Human TRPV1 (hTRPV1)-expressing CHO K1 cells were cultured using Dulbecco’s modified Eagle’s medium (DMEM) containing 10% FBS, 1% penicillin/streptomycin, and 800 μg/mL geneticin in an incubator with 5% CO2 at 37°C. HEK293 and HEK293T cells were also cultured in the same DMEM but without geneticin. Rat TRPV1 plasmids were labeled with a green fluorescent protein to indicate subsequent calcium imaging. cDNA constructs of rat TRPV1 were transiently transfected into cells using Lipofectamine 2000 (Invitrogen). Ca^2+ imaging was performed one day after transient transfection.
# At room temperature, Ca^2+ imaging was conducted in mouse DRG, HEK293T, and hTRPV1-expressing CHO K1 cells. Cells on poly-D-lysine-coated coverslips were loaded with 2 μM Fura-2 AM (Thermo Fisher Scientific, Waltham, MA) at 37°C for 40 min in DMEM. The cells were then rinsed three times with the medium and incubated for 30 min, following which they were placed on the stage of an inverted microscope (BX51W1; Olympus, Tokyo, Japan) and continuously superfused at a flow speed of 1 mL/min with a bath solution containing 140 mM NaCl, 5 mM KCl, 1 mM CaCl2, 2 mM MgCl2, 10 mM HEPES, and 10 mM glucose, adjusted to pH 7.4 with NaOH. Using illumination with a 175-W xenon arc lamp, excitation wavelengths (340/380 nm) were selected using a Lambda DG-4 monochromator wavelength changer (Shutter Instrument, Novato, CA). The fluorescence 340/380 ratio was measured using digital video microfluorometry with an intensified camera (OptiMOS; QImaging, Surrey, Canada) coupled to the microscope. Data were analyzed using SlideBook 6 (Intelligent Imaging Innovations, Denver, CO). At the end of the experiment, cells were identified based on their response to high concentrations of KCl.
# [3] = acute intraperitoneal glucose tolerance test (IPGTT), blood glucose; format: in vivo, mouse (wild-type); details: 10 μg/kg i.p. 15 min before glucose 2 g/kg i.p.
# Description: Licking time was recorded for 5 min after CAP injection in each group. Mechanical allodynia and thermal hyperalgesia were evaluated in separate experiments in a time-dependent manner. Mechanical allodynia was assessed using von Frey filaments (NC12775–99; North Coast Medical, CA). The 50% PWT was calculated using the up-down method. Thermal hyperalgesia was assessed by recording PWL using the Hargreaves radiant heat apparatus (IITC Life Sciences, Woodland Hills, CA). A cutoff value of 20 s was used to prevent tissue damage. […] The acute IPGTT was performed in mice aged 8 weeks. Baseline blood glucose levels were measured and mice were intraperitoneally injected with 200 μL of vehicle, exendin 20–29 (10 μg/kg), and exendin-4 (10 μg/kg) in wild-type mice (n = 6). After 15 min, the mice were challenged with glucose (2.0 g/kg body weight). Blood glucose levels were measured using an Accu-Chek Performa glucometer (Roche, Mannheim, Germany).
# [4] = 10 μg/kg; cited from earlier work
# Description: To determine the potential effects of exendin 20–29 on GLP-1R and glucose regulation, we performed an acute intraperitoneal glucose tolerance test (IPGTT) in 8-week-old mice. […] After 15 min of exendin 20–29 or exendin-4 administration, a glucose solution (2 g/kg) was intraperitoneally injected (at 0 min; Fig. 8f).
substance,measurement,setting,value
exendin-4,"CAP-induced Ca2+ responses, significance",[1]; vs control CAP,"****p<.0001, compared with control CAP"
same,reduction of CAP-induced Ca2+ responses,"[1]; 100 nM peptide pretreatment, room temperature",72.2%
same,CAP-induced TRPV1 calcium responses,[2],"****p <.0001, compared with each control CAP"
same,blood glucose level in IPGTT,[3],significantly lowered the blood glucose level from 15 to 120 min
same,blood glucose levels,[4],lowers blood glucose levels
